Measurements as given in ChEMBL document CHEMBL5696442, “Discovery of type II inhibitors of TGFβ-activated kinase 1 (TAK1) and mitogen-activated protein kinase kinase kinase kinase 2 (MAP4K2)” (J Med Chem, 2015).
Active and inactive are the calls of the source. The calls are words filed in the database; no cut-off is given here.

Experiments:
[1] = molecular target: Serine/threonine-protein kinase Nek7 (Homo sapiens) (UniProt Q8TDX7); assay: Inhibition of NEK7 Lys2 labeling site harbouring VMHRDIKPANVFITATGVVK in human Huh-7 cell lysate at 1 uM by KiNativ Profiling analysis relative to control; type: subcellular
[2] = molecular target: Serine/threonine-protein kinase WNK1 (Homo sapiens) (UniProt Q9H4A3); assay: Inhibition of Wnk1 Lys2 labeling site in human Huh-7 cells at 1 uM by KiNativ Profiling analysis relative to control; type: cell-based
[3] = molecular target: T1, Serine/threonine-protein kinase D1 (Homo sapiens) (UniProt Q15139); assay: Inhibition of PKD1 Lys2 labeling site in human Huh-7 cells at 1 uM by KiNativ Profiling analysis relative to control; type: cell-based
T1 sequence (whole entry): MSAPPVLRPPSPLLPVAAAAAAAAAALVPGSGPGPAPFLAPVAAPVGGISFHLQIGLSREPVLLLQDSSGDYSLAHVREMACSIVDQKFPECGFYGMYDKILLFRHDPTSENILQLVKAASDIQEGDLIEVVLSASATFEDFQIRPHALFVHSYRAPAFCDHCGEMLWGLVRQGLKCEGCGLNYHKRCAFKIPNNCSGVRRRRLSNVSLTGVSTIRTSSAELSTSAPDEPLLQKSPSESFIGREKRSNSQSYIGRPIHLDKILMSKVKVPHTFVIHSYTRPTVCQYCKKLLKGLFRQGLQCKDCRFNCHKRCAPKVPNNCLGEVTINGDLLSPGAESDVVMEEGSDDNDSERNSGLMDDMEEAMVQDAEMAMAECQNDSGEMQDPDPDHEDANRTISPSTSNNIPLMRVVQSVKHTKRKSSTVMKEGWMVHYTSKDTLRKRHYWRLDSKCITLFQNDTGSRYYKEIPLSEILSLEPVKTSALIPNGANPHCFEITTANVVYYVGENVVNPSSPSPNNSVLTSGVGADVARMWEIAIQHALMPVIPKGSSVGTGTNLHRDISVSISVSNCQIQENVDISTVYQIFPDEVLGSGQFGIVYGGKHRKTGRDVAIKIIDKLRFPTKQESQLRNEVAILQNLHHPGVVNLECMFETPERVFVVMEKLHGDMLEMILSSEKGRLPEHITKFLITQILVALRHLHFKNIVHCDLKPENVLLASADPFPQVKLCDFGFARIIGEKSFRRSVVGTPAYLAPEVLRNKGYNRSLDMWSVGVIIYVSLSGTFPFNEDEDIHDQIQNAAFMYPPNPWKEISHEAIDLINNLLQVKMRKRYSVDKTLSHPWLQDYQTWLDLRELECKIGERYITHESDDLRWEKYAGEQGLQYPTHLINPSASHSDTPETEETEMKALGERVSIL

[4] = molecular target: Ribosomal protein S6 kinase alpha-1 (Homo sapiens) (UniProt Q15418); assay: Inhibition of RSK1 domain 1 ACT labeling site in human Huh-7 cell lysate at 1 uM by KiNativ Profiling analysis relative to control; type: subcellular
[5] = molecular target: Serine/threonine-protein kinase RIO1 (Homo sapiens) (UniProt Q9BRS2); assay: Inhibition of RIOK1 (unknown origin) at 1 uM by Ambit Kinomescan binding assay relative to control
[6] = molecular target: T2, Receptor-interacting serine/threonine-protein kinase 4 (Homo sapiens) (UniProt P57078); assay: Inhibition of ANKRD3 Lys1 labeling site in human A-375 cells at 5 uM by KiNativ Profiling analysis relative to control; type: cell-based
T2 sequence (whole entry): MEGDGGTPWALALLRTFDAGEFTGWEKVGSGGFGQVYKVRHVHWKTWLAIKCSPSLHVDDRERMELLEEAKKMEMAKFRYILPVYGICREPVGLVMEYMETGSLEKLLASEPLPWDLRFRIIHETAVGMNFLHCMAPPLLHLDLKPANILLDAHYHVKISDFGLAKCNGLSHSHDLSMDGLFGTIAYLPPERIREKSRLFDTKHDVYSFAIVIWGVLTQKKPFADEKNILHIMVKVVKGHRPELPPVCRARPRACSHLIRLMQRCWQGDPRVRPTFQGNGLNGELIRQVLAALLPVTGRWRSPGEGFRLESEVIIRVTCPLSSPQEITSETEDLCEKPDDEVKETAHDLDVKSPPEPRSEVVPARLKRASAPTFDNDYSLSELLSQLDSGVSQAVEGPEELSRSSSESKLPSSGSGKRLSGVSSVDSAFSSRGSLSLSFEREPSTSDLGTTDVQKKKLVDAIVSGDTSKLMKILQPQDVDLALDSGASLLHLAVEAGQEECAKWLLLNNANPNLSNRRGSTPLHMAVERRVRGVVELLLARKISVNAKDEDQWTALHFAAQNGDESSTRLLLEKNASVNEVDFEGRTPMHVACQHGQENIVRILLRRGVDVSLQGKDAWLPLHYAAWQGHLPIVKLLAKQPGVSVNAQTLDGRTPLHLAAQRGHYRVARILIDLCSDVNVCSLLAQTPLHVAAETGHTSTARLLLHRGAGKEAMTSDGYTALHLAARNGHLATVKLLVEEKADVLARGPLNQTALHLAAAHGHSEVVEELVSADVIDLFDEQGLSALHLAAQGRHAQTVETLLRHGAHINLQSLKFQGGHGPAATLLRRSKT

[7] = molecular target: Serine/threonine-protein kinase PLK1 (Homo sapiens) (UniProt P53350); assay: Inhibition of PLK1 Lys2 labeling site in human A-375 cells at 0.5 uM by KiNativ Profiling analysis relative to control; type: cell-based
[8] = molecular target: Casein kinase I isoform alpha-like (Homo sapiens) (UniProt Q8N752); assay: Inhibition of CSNK1A1L (unknown origin) at 10 uM by Ambit Kinomescan binding assay
[9] = molecular target: Serine/threonine-protein kinase MRCK beta (Homo sapiens) (UniProt Q9Y5S2); assay: Inhibition of MRCKB (unknown origin) at 10 uM by Ambit Kinomescan binding assay

Sequence of Ribosomal protein S6 kinase alpha-1 (Homo sapiens) (Q15418 whole entry, the tested form may be a part): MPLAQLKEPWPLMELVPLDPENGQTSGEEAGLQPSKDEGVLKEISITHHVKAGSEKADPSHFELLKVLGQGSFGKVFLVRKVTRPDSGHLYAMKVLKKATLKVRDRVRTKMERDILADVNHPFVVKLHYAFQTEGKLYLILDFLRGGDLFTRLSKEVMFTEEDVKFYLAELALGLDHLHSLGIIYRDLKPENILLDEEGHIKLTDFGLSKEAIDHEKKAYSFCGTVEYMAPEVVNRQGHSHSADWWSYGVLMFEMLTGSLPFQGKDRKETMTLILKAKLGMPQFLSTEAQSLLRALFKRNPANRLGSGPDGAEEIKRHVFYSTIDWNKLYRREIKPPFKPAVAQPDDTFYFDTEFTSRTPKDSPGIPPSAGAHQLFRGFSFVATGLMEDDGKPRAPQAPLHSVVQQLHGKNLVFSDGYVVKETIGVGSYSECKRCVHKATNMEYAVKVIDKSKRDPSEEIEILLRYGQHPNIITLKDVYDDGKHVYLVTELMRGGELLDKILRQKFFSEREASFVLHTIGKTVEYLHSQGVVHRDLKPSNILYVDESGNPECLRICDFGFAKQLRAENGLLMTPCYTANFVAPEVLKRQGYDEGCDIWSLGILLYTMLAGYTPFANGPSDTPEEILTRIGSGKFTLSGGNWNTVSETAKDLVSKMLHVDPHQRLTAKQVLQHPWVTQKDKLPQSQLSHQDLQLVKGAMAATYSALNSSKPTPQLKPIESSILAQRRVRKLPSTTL
Sequence of Serine/threonine-protein kinase WNK1 (Homo sapiens) (Q9H4A3 whole entry, looked up): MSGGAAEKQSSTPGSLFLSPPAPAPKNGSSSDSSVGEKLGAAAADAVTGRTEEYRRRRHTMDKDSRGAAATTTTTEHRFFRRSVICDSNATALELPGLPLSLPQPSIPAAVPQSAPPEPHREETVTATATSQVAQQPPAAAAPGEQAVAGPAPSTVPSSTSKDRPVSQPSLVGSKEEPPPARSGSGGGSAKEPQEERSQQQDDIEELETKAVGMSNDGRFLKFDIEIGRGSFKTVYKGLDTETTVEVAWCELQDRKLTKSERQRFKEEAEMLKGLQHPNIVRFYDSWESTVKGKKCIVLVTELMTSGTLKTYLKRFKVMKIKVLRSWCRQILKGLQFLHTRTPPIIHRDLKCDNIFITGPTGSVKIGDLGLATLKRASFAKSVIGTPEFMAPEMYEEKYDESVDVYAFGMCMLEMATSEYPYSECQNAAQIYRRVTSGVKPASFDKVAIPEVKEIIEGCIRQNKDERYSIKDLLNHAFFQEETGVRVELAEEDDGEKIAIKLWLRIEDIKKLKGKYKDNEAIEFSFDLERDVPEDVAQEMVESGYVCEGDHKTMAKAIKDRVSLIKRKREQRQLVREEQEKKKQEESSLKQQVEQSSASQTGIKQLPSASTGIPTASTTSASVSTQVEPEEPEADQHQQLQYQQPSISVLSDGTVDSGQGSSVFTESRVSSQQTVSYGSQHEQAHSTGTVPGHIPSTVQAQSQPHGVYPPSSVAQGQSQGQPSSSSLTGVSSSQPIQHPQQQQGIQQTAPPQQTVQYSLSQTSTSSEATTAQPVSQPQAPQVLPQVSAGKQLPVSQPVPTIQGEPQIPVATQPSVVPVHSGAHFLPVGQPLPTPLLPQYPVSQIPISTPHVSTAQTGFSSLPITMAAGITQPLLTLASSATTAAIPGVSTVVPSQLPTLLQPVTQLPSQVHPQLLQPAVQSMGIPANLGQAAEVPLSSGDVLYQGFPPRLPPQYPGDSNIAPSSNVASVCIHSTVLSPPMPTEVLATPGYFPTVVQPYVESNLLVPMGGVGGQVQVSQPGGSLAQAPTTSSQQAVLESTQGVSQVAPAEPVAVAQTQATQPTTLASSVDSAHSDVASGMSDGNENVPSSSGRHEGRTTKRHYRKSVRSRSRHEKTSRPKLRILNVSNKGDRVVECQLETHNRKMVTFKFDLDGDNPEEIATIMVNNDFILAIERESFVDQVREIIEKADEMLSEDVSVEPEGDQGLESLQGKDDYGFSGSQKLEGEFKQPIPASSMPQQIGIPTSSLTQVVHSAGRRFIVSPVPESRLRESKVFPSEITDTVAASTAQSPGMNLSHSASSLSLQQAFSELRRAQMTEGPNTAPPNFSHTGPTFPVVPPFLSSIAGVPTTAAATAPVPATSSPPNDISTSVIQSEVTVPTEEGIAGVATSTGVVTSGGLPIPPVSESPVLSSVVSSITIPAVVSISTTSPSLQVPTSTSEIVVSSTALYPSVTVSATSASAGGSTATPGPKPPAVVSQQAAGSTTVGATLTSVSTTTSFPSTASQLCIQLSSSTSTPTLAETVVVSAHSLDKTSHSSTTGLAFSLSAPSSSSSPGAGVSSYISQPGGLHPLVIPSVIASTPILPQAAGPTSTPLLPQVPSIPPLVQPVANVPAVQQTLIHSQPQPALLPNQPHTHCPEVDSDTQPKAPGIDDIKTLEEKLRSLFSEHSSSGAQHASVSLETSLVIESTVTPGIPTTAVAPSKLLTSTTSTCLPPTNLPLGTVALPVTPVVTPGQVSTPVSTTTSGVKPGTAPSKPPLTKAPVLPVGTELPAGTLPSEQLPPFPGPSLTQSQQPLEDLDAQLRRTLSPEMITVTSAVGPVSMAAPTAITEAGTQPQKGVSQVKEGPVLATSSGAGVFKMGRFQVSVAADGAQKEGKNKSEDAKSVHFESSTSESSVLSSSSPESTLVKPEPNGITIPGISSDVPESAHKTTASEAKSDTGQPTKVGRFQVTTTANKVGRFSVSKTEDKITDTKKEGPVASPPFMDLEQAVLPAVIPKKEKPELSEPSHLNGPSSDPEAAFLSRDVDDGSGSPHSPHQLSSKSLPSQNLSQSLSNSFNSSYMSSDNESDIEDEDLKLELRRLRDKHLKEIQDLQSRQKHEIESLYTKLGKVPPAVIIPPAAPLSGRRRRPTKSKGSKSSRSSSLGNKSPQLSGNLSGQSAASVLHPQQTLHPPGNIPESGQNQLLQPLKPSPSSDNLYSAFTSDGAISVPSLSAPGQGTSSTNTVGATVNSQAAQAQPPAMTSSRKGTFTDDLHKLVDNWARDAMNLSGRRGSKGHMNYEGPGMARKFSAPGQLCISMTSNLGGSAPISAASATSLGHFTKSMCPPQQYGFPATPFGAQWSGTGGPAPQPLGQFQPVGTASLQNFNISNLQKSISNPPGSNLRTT
Sequence of Serine/threonine-protein kinase Nek7 (Homo sapiens) (Q8TDX7 whole entry, looked up): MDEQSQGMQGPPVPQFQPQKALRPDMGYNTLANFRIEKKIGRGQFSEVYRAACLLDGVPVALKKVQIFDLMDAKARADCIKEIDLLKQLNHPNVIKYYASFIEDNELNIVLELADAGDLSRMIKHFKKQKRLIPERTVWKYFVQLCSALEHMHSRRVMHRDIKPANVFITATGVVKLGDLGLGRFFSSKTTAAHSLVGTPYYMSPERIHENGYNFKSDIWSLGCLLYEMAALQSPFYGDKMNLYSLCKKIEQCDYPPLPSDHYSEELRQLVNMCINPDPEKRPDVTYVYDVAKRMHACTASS
Sequence of Serine/threonine-protein kinase PLK1 (Homo sapiens) (P53350 whole entry, canonical isoform): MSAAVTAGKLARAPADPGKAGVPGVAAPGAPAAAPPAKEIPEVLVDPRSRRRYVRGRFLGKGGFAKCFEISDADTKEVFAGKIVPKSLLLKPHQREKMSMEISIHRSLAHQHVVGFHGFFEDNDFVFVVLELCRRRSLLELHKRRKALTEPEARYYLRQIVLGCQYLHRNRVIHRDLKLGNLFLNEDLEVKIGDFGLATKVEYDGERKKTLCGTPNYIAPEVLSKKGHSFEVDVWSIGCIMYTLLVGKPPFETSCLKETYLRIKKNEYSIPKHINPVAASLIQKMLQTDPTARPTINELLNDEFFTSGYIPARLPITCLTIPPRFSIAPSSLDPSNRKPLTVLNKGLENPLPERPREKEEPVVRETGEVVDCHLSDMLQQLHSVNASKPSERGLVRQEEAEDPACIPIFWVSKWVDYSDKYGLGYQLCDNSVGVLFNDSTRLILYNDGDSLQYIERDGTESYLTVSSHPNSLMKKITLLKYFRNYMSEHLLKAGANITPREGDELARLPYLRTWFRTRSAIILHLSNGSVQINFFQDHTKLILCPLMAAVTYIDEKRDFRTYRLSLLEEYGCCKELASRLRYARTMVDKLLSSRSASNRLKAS
Sequence of Casein kinase I isoform alpha-like (Homo sapiens) (Q8N752 whole entry, canonical isoform): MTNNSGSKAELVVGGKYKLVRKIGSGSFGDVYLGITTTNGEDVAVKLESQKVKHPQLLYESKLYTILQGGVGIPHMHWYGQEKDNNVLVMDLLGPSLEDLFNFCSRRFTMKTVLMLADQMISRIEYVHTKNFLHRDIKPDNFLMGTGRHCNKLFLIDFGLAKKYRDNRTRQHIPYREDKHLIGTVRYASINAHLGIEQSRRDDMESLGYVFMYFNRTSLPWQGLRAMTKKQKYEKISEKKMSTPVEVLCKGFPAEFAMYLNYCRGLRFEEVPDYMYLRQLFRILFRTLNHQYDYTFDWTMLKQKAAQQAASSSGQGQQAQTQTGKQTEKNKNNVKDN
Sequence of Serine/threonine-protein kinase RIO1 (Homo sapiens) (Q9BRS2 whole entry): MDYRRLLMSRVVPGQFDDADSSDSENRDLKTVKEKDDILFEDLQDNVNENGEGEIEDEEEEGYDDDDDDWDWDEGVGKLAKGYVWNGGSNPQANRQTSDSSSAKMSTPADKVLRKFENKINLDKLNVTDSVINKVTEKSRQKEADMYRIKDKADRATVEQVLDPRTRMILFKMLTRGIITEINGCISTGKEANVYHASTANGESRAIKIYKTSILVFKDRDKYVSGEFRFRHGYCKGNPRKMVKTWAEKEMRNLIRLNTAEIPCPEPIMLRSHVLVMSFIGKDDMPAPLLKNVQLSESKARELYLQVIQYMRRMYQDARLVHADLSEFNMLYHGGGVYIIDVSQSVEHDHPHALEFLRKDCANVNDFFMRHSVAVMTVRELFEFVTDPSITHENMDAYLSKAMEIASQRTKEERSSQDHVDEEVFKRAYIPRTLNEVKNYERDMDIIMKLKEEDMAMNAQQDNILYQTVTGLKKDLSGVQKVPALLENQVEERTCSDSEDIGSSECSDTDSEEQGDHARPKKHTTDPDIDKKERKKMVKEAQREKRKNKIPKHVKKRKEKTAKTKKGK

In the case of `CNc1cc(Oc2cc(C(=O)Nc3cc(N4CCN(C)CC4)cc(C(F)(F)F)c3)ccc2C)ncn1`, the inhibition [1] is reported as 19.4%, the inhibition [2] is reported as 15.3% and the inhibition [3] is reported as 9%. For the same molecule, the inhibition [4] was 9.3%.

`CCN1CCN(Cc2ccc(NC(=O)c3ccc(C)c(/C=C/c4cnc5[nH]ccc5c4OC)c3)cc2C(F)(F)F)CC1` gave an inhibition [5] of 20%, an inhibition [6] of 17% and an inhibition [7] of 13.2%.

With `CCN1CCN(Cc2ccc(NC(=O)c3ccc(C)c(Oc4ccnc5[nH]ccc45)c3)cc2C(F)(F)F)CC1` the inhibition [8] was “inactive” and the inhibition [9] was “inactive”.
